One series addresses T1, TLR-4 (Homo sapiens, UniProt O00206+Q9Y6Y9).
T1 construct: related toll-like receptor family members and other nucleic acid intracellular signaling receptors in primary human leukocytes; endogenous in cells; host or cells: primary human leukocytes
As to the kind of experiment: Receptor specificity in primary human leukocytes: TLR-4. The format is cell-based. On the procedure: (§1) Example B5—Receptor Specificity
(§2) Representative compounds were tested for antagonist activity against related toll-like receptor family members and other nucleic acid intracellular signaling receptors in primary human leukocytes. The compounds were Compound Nos. 5 and 9, and they were tested for their ability to inhibit human RIG-I, TLR-2, TLR-4, and TLR-5. With one exception, neither compound was able to inhibit these receptors greater than 50% at 10 μM.

A further series has as its target T2, TLR-2 (Homo sapiens, UniProt O60603).
T2 construct: related toll-like receptor family members and other nucleic acid intracellular signaling receptors in primary human leukocytes; endogenous in cells; host or cells: primary human leukocytes
Nature of the series: Receptor specificity in primary human leukocytes: TLR-2. The class given is cell-based. On the procedure: as §1, §2

A further series addresses T3, human TLR8 (Homo sapiens, UniProt Q9NR97).
T3 construct: endogenous in cells; host or cells: primary human monocytes (CD14 microbeads) from buffy coats of healthy donors
T3 sequence (Q9NR97 27-1041): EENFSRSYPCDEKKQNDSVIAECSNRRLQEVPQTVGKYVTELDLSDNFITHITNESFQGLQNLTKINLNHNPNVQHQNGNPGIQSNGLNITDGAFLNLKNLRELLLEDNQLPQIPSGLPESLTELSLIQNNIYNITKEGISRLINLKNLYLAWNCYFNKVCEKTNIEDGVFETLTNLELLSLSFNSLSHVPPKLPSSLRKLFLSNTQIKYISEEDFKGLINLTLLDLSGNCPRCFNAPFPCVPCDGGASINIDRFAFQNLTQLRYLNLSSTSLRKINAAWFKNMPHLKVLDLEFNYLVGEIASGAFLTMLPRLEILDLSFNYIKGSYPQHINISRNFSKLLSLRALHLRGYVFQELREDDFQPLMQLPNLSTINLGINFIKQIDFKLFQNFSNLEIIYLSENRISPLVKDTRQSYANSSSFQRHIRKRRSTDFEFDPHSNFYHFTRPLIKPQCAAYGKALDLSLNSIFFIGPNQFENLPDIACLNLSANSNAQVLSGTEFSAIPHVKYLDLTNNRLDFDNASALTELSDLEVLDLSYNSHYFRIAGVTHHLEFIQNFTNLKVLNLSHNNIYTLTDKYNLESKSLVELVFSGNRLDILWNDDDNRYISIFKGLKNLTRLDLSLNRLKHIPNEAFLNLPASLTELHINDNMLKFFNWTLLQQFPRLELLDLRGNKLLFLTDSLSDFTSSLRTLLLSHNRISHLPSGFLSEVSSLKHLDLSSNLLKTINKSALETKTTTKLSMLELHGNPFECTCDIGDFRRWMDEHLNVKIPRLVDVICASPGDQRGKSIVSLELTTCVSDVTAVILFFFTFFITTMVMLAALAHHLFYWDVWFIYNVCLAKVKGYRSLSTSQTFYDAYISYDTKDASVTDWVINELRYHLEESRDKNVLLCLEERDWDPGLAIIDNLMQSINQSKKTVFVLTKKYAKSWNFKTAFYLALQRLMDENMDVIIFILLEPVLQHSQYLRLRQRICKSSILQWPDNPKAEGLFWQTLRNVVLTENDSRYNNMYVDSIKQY
Nature of the series: Inhibition of human TLR8 in human monocytes (TNF-alpha / IL-1 beta ELISA). The class given is cell-based. Particulars: for IC50: human monocytes, agonist ORN8L 100 μg/mL, 24 hours; for inhibits TLR8-dependent responses (in words): summary statement of the description. The method in brief: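 Primary human monocytes from donor buffy coats (~200,000 cells/well) given serially diluted compound, then ORN8L RNA oligonucleotide agonist at 100 μg/mL final. After 24 h at 37 °C, supernatant TNF-alpha and/or IL-1 beta measured by ELISA; IC50 from the concentration-response of cytokine release.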
Background: In an ELISA, binding on a coated surface is turned into a signal by an enzyme label.

The nature of series [1]: Plasma stability in human plasma. The class given is in vitro ADME. Particulars: plasma (90%); 90% human plasma, 2 μM compound, 37° C., 0-60 minutes; read-out: T1/2 in human plasma. As for the experimental part:
Example B6—Plasma Stability
The stability of compounds in human plasma was tested. Human plasma was spiked with compound to final concentration of 90% plasma and 2 μM compound. Samples were incubated for 0, 5, 15, 30, 45 and 60 minutes at 37° C. The reaction was stopped by the addition of acetonitrile. An aliquot of the stopped reaction was mixed with ultra-pure water (Millipore, ZMQS50F01) and analyzed by liquid chromatography/electrospray ionization mass spectroscopy.

Series [2] in a line: Metabolic stability in human liver microsomes. The format is in vitro ADME. Particulars: 0.5 mg/mL microsomal protein, 1.5 μM compound, 37° C.; for half-life at 1.5 μM: 0-45 minutes, read-out: T1/2 in human liver microsomes. As for the experimental part: Example B7—Metabolic Stability
The stability of compounds in human liver microsomes was tested. Human liver microsomes (from BD Gentest) were spiked with compounds to a final liver microsomal protein concentration of 0.5 mg/mL and a final compound concentration of 1.5 μM. Samples were incubated for 0, 5, 15, 30, 45 minutes at 37° C. The reaction was stopped by the addition of acetonitrile. An aliquot of the stopped reaction was mixed with ultra-pure water (Millipore, ZMQS50F01) and analyzed by liquid chromatography/electrospray ionization mass spectroscopy.

Where [3] appears, read: IL-1 beta readout, read-out: Human TLR8 IC50 IL-1b.
The mark [4] stands for this setting: TNF-alpha readout, read-out: Human TLR8 IC50 TNF-a.

The record followed here is patent publication US11370794B2, “Toll-like receptor antagonist compounds and methods of use” (Dynavax Technologies Corporation, priority 2016, dated 2022).

One may read the inhibition as the share of the control response that was lost under treatment. A lower inhibition goes with a response near the control. Broadly, the IC50 is the concentration that inhibits the measured activity by half. By CLint scaled is commonly meant a measure of how fast metabolising enzymes remove a compound, apart from limits set by blood flow. A lower CLint scaled goes with greater metabolic stability.

Where two headings read alike, the source gives them in different places. Some results are limits rather than exact numbers.

T1 sequence (O00206 24-839): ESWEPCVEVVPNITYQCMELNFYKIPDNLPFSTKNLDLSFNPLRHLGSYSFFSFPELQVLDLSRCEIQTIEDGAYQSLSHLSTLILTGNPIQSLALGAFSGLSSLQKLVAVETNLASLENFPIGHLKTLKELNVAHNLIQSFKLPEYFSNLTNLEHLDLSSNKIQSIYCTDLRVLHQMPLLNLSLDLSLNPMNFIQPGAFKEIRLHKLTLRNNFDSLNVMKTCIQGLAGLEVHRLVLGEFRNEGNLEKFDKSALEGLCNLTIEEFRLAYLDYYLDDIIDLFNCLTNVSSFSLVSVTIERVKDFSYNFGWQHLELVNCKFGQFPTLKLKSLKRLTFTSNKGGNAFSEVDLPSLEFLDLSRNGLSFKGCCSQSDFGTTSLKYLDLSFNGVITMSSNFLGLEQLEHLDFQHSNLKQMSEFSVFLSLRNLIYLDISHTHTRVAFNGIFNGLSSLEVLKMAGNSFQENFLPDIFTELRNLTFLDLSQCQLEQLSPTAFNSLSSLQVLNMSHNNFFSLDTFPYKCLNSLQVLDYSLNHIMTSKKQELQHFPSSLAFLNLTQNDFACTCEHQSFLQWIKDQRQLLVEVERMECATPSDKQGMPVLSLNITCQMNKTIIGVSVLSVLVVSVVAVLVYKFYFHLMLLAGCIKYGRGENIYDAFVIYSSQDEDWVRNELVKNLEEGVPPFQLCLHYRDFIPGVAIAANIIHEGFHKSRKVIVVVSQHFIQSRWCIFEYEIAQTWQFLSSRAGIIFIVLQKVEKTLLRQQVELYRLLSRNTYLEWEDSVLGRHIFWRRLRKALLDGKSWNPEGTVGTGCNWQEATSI
T1 sequence (Q9Y6Y9 17-160 limits assumed): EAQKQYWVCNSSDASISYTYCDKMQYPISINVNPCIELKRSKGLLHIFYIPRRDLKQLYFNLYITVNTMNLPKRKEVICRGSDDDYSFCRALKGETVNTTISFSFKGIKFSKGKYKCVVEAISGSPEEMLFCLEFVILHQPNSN
T2 sequence (O60603 21-784): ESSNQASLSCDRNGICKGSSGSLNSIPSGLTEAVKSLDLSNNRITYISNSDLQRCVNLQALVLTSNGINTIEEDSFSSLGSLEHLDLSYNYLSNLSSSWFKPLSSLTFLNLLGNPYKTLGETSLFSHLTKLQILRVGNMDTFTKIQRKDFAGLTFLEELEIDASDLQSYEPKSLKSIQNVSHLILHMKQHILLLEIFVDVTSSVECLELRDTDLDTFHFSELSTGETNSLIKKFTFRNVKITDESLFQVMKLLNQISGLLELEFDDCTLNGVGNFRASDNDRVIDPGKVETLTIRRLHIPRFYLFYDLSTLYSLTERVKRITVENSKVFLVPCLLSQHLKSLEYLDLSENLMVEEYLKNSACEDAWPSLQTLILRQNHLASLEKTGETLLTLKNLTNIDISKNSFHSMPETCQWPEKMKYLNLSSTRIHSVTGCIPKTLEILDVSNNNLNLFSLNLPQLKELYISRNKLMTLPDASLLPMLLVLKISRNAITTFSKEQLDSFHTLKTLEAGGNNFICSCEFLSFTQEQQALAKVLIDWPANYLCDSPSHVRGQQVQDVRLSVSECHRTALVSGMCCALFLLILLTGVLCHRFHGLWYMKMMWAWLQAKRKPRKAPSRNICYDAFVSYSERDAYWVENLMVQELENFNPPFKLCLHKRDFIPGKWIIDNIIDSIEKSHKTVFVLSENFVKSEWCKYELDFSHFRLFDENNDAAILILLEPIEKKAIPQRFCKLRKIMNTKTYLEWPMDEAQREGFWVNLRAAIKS

As for `Cc1ccc(-n2nc3c(N4CCC(CCC(=O)NCCN(C)C)CC4)nnc(C)c3c2C)cc1` [Compound No. 9, 3-(1-(3,4-dimethyl-2-(p-tolyl)-2H-pyrazolo[3,4-d]pyridazin-7-yl)piperidin-4-yl)-N-(2-(dimethylamino)ethyl)propanamide], the inhibition at 10 µM on TLR-4 and against TLR-2 was no more than 50% each time. Also, the results for the IC50 at human TLR8 (setting [3]) and on human TLR8 (setting [4]) were 5020 nM and 1220 nM, respectively.
`Cc1ccc(-n2nc3c(N4CCC(C(=O)NCCCN(C)C)CC4)nnc(C)c3c2C)cc1` [Compound No. 5, 1-(3,4-dimethyl-2-(p-tolyl)-2H-pyrazolo[3,4-d]pyridazin-7-yl)-N-(3-(dimethylamino)propyl)piperidine-4-carboxamide]: the inhibition at 10 µM against TLR-4 and at TLR-2 was no more than 50% each time. Also, the half-life at 2 μM in series [1] came to 17.9 h. For the same compound, the IC50 on human TLR8 (setting [3]) and on human TLR8 (setting [4]) was greater than 10000 nM in each case. In series [2], this compound returned a CLint scaled at 1.5 μM of 2.2 mL/min/kg. Also, in series [2], the half-life at 1.5 μM was 13.3 h.
For the compound `Cc1ccc(-n2nc3c(N4CCC(C(=O)NC5CN(Cc6ccccc6)C5)CC4)nnc(C)c3c2C)cc1` [Compound No. 4, N-(1-benzylazetidin-3-yl)-1-(3,4-dimethyl-2-(p-tolyl)-2H-pyrazolo[3,4-d]pyridazin-7-yl)piperidine-4-carboxamide], the IC50 came out at 1010 nM on human TLR8 (setting [3]) and 770 nM on human TLR8 (setting [4]). Moreover, on human TLR8, the “inhibits TLR8-dependent responses (in words)” value is on record as “inhibit”.
For `Cc1ccc(-n2nc3c(N4CCC(C(=O)NCC(C)(C)CNc5ccccc5)CC4)nnc(C)c3c2C)cc1` [2-1], the IC50 was determined as 9920 nM on human TLR8 (setting [3]) and 9770 nM on human TLR8 (setting [4]).
With `Cc1ccc(-n2nc3c(N4CCC(C(=O)NCCCN(C)Cc5ccccc5)CC4)nnc(C)c3c2C)cc1` [Compound No. 1, N-(3-(benzyl(methyl)amino)propyl)-1-(3,4-dimethyl-2-(p-tolyl)-2H-pyrazolo[3,4-d]pyridazin-7-yl)piperidine-4-carboxamide], the half-life at 2 μM in series [1] is 3.74 h. The IC50 on human TLR8 (setting [3]) turned out to be 740 nM; at human TLR8 (setting [4]), 620 nM. In addition, at human TLR8, the “inhibits TLR8-dependent responses (in words)” value is on record as “inhibit”. Also, the CLint scaled at 1.5 μM in series [2] was determined as 347 mL/min/kg. The half-life at 1.5 μM in series [2] is 0.0833 h.
Take `Cc1ccc(-n2nc3c(N4CCC(C(=O)NCCCc5c[nH]cn5)CC4)nnc(C)c3c2C)cc1` [Compound No. 6, N-(3-(1H-imidazol-4-yl)propyl)-1-(3,4-dimethyl-2-(p-tolyl)-2H-pyrazolo[3,4-d]pyridazin-7-yl)piperidine-4-carboxamide]: the IC50 on human TLR8 (setting [3]) was greater than 10000 nM; on human TLR8 (setting [4]) it was 6680 nM.
On to `Cc1ccc(-n2nc3c(N4CCC(C(=O)NC5CN(C)C5)CC4)nnc(C)c3c2C)cc1` [Compound No. 3, 1-(3,4-dimethyl-2-(p-tolyl)-2H-pyrazolo[3,4-d]pyridazin-7-yl)-N-(1-methylazetidin-3-yl)piperidine-4-carboxamide], for which the half-life at 2 μM in series [1] was found to be 3.45 h. Moreover, the IC50 at human TLR8 (setting [3]) is greater than 10000 nM. In addition, at human TLR8 (setting [4]), the IC50 is greater than 10000 nM. In addition, in series [2], the CLint scaled at 1.5 μM was 4.5 mL/min/kg and the half-life at 1.5 μM came to 6.4 h.
For the compound `Cc1ccc(-n2nc3c(N4CCC(C(=O)N5CCN(Cc6ccccc6)CC5)CC4)nnc(C)c3c2C)cc1` [Compound No. 2, (4-benzylpiperazin-1-yl)(1-(3,4-dimethyl-2-(p-tolyl)-2H-pyrazolo[3,4-d]pyridazin-7-yl)piperidin-4-yl)methanone], the IC50 on human TLR8 (setting [3]) was 900 nM; on human TLR8 (setting [4]), 670 nM. The “inhibits TLR8-dependent responses (in words)” value at human TLR8 is on record as “inhibit”.
